Tests used:
[1] = tested on: human peripheral blood lymphocytes stimulated with PHA; assay: Cytotoxicity in PHA-stimulated PBLs (MTT); format: cell-based; conditions: Lymphocyte, 72 h, mean ± SEM, three experiments, read-out: GI50 PBLPHA
Experimental: PBLs were obtained from human peripheral blood (leucocyte rich plasma-buffy coats) from healthy volunteers using the Lymphoprep (Fresenius KABI Norge AS) gradient density centrifugation.
After extensive washing, cells were resuspended (1.0 × 10^6 cells/mL) in RPMI-1640 with 10% fetal bovine serum and incubated overnight. For cytotoxicity evaluations in proliferating PBL cultures, nonadherent cells were resuspended at 5 × 10^5 cells/mL in growth medium, containing 2.5 μg/mL PHA (Irvine Scientific). Different concentrations of the test compounds were added, and viability was determined 72 h later by the MTT test. For cytotoxicity evaluations in resting PBL cultures, nonadherent cells were resuspended (5 × 10^5 cells/mL) and treated for 72 h with the test compounds.

HeLa cells = assay: Flow cytometric cell cycle distribution; format: cell-based; conditions: 24 h
Experimental: To evaluate the effects of compounds 63, 66, and 75 on cell cycle progression, we first treated HeLa cells for 24 h.The cells were then labeled with propidium iodide (PI) and analyzed by flow cytometry. As shown in Figure 5 (panel B), compound 66 induced arrest of the cell cycle in the G2/M phase.
5 ×10^5 HeLa cells were treated with different concentrations of the test compounds for 24 h. After the incubation period, the cells were collected, centrifuged, and fixed with ice-cold ethanol (70%). The cells were treated with lysis buffer containing RNase A and 0.1% Triton X-100 and stained with PI. Samples were analyzed on a Cytomic FC500 flow cytometer (Beckman Coulter). DNA histograms were analyzed using MultiCycle for Windows (Phoenix Flow Systems).

MALME-3M = assay: NCI-60 screen; format: cell-based; conditions: Homo sapiens, Melanoma
Experimental: (§1) All the synthesized compounds 51–76 were tested at a 10^–5 M concentration for their antitumor activity on the full NCI-60 panel comprising cancer cell lines derived from nine human cancer cell types (leukemia, non-small-cell lung, colon, central nervous system, melanoma, ovarian, renal, prostate, and breast).[50]

HCC-2998 = assay: NCI-60 screen; format: cell-based; conditions: Homo sapiens, Colon Cancer
Experimental: as §1

SN12C = assay: NCI-60 screen; format: cell-based; conditions: Homo sapiens, Renal Cancer
Experimental: as §1

OVCAR-5 = assay: NCI-60 screen; format: cell-based; conditions: Homo sapiens, Ovarian Cancer
Experimental: as §1

OVCAR-8 = assay: NCI-60 screen; format: cell-based; conditions: Homo sapiens, Ovarian Cancer
Experimental: as §1

HS 578T = assay: NCI-60 screen; format: cell-based; conditions: Homo sapiens, Breast Cancer
Experimental: as §1

SK-MEL-2 = assay: NCI-60 screen; format: cell-based; conditions: Homo sapiens, Melanoma
Experimental: as §1

T-47D = assay: NCI-60 screen; format: cell-based; conditions: Homo sapiens, T47D; Breast Cancer
Experimental: as §1

HOP-62 = assay: NCI-60 screen; format: cell-based; conditions: Homo sapiens, Non-Small-Cell Lung Cancer
Experimental: as §1

bovine brain tubulin = bovine brain tubulin (Bos taurus, UniProt P81947+Q6B856); assay: Inhibition of tubulin assembly (turbidimetry); format: biochemical; conditions: 9 μM (0.9 mg/mL) tubulin, 20 min at 30 °C; read-out: inhibition of tubulin assembly IC50 ± SD
Chain of bovine brain tubulin (Q6B856 whole entry): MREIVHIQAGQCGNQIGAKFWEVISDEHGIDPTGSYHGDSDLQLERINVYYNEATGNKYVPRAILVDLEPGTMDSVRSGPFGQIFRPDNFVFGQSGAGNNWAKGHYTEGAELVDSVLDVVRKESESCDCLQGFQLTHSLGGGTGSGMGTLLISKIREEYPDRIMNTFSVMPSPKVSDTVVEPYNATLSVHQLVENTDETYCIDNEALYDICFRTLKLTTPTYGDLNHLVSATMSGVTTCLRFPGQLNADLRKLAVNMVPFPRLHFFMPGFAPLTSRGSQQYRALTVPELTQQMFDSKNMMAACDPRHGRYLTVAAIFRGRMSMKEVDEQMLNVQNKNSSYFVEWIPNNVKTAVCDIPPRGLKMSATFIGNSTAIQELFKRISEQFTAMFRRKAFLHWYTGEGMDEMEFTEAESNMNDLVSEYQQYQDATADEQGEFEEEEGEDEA
Chain of bovine brain tubulin (P81947 whole entry): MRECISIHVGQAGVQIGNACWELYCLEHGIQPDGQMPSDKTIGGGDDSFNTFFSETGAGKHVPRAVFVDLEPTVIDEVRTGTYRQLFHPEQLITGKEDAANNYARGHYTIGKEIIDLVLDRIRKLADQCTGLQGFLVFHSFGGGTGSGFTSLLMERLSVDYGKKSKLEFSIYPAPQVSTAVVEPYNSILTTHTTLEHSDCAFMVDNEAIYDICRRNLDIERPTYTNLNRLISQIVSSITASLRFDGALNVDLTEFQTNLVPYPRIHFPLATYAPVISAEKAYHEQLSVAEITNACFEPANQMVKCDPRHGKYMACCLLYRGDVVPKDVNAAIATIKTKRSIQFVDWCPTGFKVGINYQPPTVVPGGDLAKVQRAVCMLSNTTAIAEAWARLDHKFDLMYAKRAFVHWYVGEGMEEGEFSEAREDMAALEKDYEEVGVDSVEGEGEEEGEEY

VL51 (MZL) = assay: MTT cell proliferation, lymphoma; format: cell-based; conditions: Homo sapiens, 72 h; for activity at 1 µM: of untreated cells, read-out: Proliferating cells (%); for IC50: MTT
Experimental: (§2) All compounds were further tested at the concentration of 1 μM on four cell lines derived from distinct lymphoma histotypes, plus two with secondary resistance to the PI3Kδ inhibitor idelalisib[51] or to the BTK inhibitor ibrutinib.[52] […] For comparison, the same experiments were conducted using compound 3, but the response to it was minimal, and thus it was not considered further.
(§3) Established human cell lines derived from germinal center B-cell (GCB) (SU-DHL-10), activated B-cell (ABC) (HBL1) diffuse large B-cell lymphoma (DLBCL), mantle cell lymphoma (MCL) (MINO), splenic marginal zone lymphoma (SMZL) (parental VL51, VL51 idelalisib resistant clone, VL51 ibrutinib resistant clone) were cultured in culture RPMI-1640 media supplemented with fetal bovine serum (10%), penicillin–streptomycin–neomycin (∼5,000 units of penicillin, 5 mg of streptomycinm and 10 mg of neomycin/mL, Sigma), and L-glutamine (1%). Vincristine sulfate was purchased from Sigma-Aldrich. Cell line identities were confirmed by CellCheck test (IDEXX, BioResearch, Ludwigsburg, Germany). All compounds were dissolved in dimethyl sulfoxide to obtain a stock concentration of 10 mM.
(§4) The antiproliferative activity of all compounds was assessed by using the 3-(4.5-dimethylthiazolyl-2)-2,5-diphenyltetrazolium bromide (MTT) test. Cells were seeded in 96-well plates (nontissue culture treated) at a density of 1 × 10^5 cells/mL and treated with a single concentration of 1 μM for 72 h. […] In this case, cells were treated in triplicate with serially diluted compounds in the appropriate tissue culture medium at a range of 40–10 000 nM. Cells were incubated for 72 h at 37 °C, 5% CO2. Wells containing medium only were included on each plate and served as blanks for absorbance readings. MTT (Sigma, Buchs, Switzerland) was prepared as a 5 mg/mL stock solution in phosphate buffered saline (PBS) and filter-sterilized. MTT solution (22 μL) was added to each well, and tissue culture plates were incubated at 37 °C for 4 h. Cells were then lysed with 25% sodium dodecyl sulfate lysis buffer, and absorbance was read at 570 nm using a Beckman Coulter-AD340 plate reader.

[2] = tested on: VL51 idelalisib-resistant; assay: MTT cell proliferation, lymphoma; format: cell-based; conditions: Homo sapiens, 72 h, of untreated cells, read-out: Proliferating cells (%)
Experimental: as §2, §3, §4

MINO (MCL) = assay: MTT cell proliferation, lymphoma; format: cell-based; conditions: Homo sapiens, 72 h; for activity at 1 µM: of untreated cells, read-out: Proliferating cells (%); for IC50: MTT
Experimental: as §2, §3, §4

HBL1 (ABC DLBCL) = assay: MTT cell proliferation, lymphoma; format: cell-based; conditions: Homo sapiens, 72 h; for activity at 1 µM: of untreated cells, read-out: Proliferating cells (%); for IC50: MTT
Experimental: as §2, §3, §4

VL51 ibrutinib-resistant = assay: MTT cell proliferation, lymphoma; format: cell-based; conditions: Homo sapiens, 72 h, of untreated cells, read-out: Proliferating cells (%)
Experimental: as §2, §3, §4

SU-DHL-10 (GCB DLBCL) = assay: MTT cell proliferation, lymphoma; format: cell-based; conditions: Homo sapiens, SU-DHL10, 72 h; for activity at 1 µM: of untreated cells, read-out: Proliferating cells (%); for IC50: MTT
Experimental: as §2, §3, §4

tubulin colchicine site = tubulin colchicine site (Bos taurus, UniProt P81947+Q6B856); assay: Inhibition of [3H]colchicine binding to tubulin; conditions: read-out: inhibition of colchicine binding % inhibition ± SD
Chain of tubulin colchicine site (Q6B856 whole entry): as the sequence (Q6B856 whole entry) above
Chain of tubulin colchicine site (P81947 whole entry): as the sequence (P81947 whole entry) above
Experimental: Reaction mixtures in the assembly assay contained 9 μM (0.9 mg/mL) tubulin in the assembly assay, and in the colchicine assay they contained 0.5 μM tubulin, 5.0 μM [^3H]colchicine, and 5.0 μM inhibitor.
Analysis of effects on tubulin polymerization was performed by turbidimetry at 350 nm in recording spectrophotometers equipped with electronic temperature controllers as described in detail elsewhere.[71] […] The binding of [^3H]colchicine to tubulin was perfomed as described in detail previously[72] except that the tubulin concentration was reduced from 0.1 mg/mL to 0.05 mg/mL and only one, instead of two, DEAE-cellulose filter was used for each reaction mixture.

U251 = assay: NCI-60 screen; format: cell-based; conditions: Homo sapiens, U-251; CNS Cancer
Experimental: as §1

Row | Compound | GI50 [1] [µM] | GI50 (MALME-3M) [µM] | GI50 (HCC-2998) [µM] | GI50 (SN12C) [µM] | GI50 (OVCAR-5) [µM] | GI50 (OVCAR-8) [µM] | GI50 (HS 578T) [µM] | GI50 (T-47D) [µM] | GI50 (HOP-62) [µM] | IC50 (bovine brain tubulin) [µM] | activity at 1 µM (VL51 (MZL)) [%] | IC50 (VL51 (MZL)) [µM] | activity at 1 µM [2] [%] | activity at 1 µM (MINO (MCL)) [%] | IC50 (MINO (MCL)) [µM] | activity at 1 µM (HBL1 (ABC DLBCL)) [%] | IC50 (HBL1 (ABC DLBCL)) [µM] | activity at 1 µM (VL51 ibrutinib-resistant) [%] | activity at 1 µM (SU-DHL-10 (GCB DLBCL)) [%] | IC50 (SU-DHL-10 (GCB DLBCL)) [µM] | further results
1 | CCOC(=O)c1cc2c(n1Cc1cccc(OC)c1)-c1oncc1CCC2 [Compound 63, Ethyl 9-(3-Methoxybenzyl)-4,5,6,9-tetrahydropyrrolo[2′,3′:3,4]cyclohepta[1,2-d][1,2]oxazole-8-carboxylate] | > 100 | 0.89 | 4.18 | 3.51 | 5.94 | 3.13 | 1.6 | 2 | 4.34 | 6.3 ± 0.06 | 66.7 | 2.3 | 62.3 | 86.3 | 2.6 | 117 | > 5 | 64.9 | 51.5 | 3 | concentration at which G2/M arrest first occurred (HeLa cells): 1 µM; GI50 (SK-MEL-2): 0.56 µM
2 | CCOC(=O)c1cc2c(n1Cc1cc(OC)cc(OC)c1)-c1oncc1CCC2 [Compound 66, Ethyl 9-(3,5-Dimethoxybenzyl)-4,5,6,9-tetrahydropyrrolo[2′,3′:3,4]cyclohepta[1,2-d][1,2]oxazole-8-carboxylate] | > 100 | – | 0.23 | 0.07 | 0.18 | 0.08 | 0.04 | – | – | 2.6 ± 0.03 | 40.1 | 0.25 | 34.3 | 9.1 | 0.25 | 24.1 | 0.3 | 40.5 | 11.3 | 0.25 | concentration at which G2/M arrest first occurred (HeLa cells): 0.125 µM; cells arrested in G2/M (HeLa cells; 0.5 μM): over 80%; GI50 (SK-MEL-2): 0.04 µM; inhibition at 5 µM (tubulin colchicine site): 62 ± 2%
3 | CCOC(=O)c1cc2c(n1Cc1ccccc1OC)-c1oncc1CCC2 [Compound 62, Ethyl 9-(2-Methoxybenzyl)-4,5,6,9-tetrahydropyrrolo[2′,3′:3,4]cyclohepta[1,2-d][1,2]oxazole-8-carboxylate] | – | 3.08 | > 100 | > 100 | > 100 | 3.85 | 3.38 | 2.46 | 1.89 | – | 71.3 | 3.2 | 63.6 | 104 | 4 | 128 | > 5 | 80.3 | 51.1 | 3.6 | GI50 (U251): 3.78 µM
4 | CCOC(=O)c1cc2c(n1Cc1cc(OC)c(OC)c(OC)c1)-c1oncc1CCC2 [Compound 67, Ethyl 9-(3,4,5-Trimethoxybenzyl)-4,5,6,9-tetrahydropyrrolo[2′,3′:3,4]cyclohepta[1,2-d][1,2]oxazole-8-carboxylate] | – | 0.05 | 0.3 | 0.76 | 0.53 | 0.24 | 0.34 | 0.1 | 0.17 | 4.6 ± 0.8 | 40.5 | 0.5 | 36.6 | 8.9 | 0.6 | 24.2 | 0.9 | 40.4 | 11.2 | 0.6 | GI50 (U251): 0.14 µM; inhibition at 5 µM (tubulin colchicine site): 25 ± 0.01%
5 | CCOC(=O)c1c(Cl)c2c(n1Cc1ccccc1)-c1oncc1CCC2 [Compound 70, Ethyl 7-Chloro-9-benzyl-4,5,6,9-tetrahydropyrrolo[2′,3′:3,4]cyclohepta[1,2-d][1,2]oxazole-8-carboxylate] | – | 3.68 | – | – | > 100 | – | – | 2.69 | 4.35 | – | 108 | > 10 | 111 | 104 | > 10 | 104 | > 10 | 104 | 69.5 | 9 | –

Source: PMC7901646, “Pyrrolo[2′,3′:3,4]cyclohepta[1,2-d][1,2]oxazoles, a New Class of Antimitotic Agents Active against Multiple Malignant Cell Types” (Journal of Medicinal Chemistry, 2020)
